What is called IC50 is the concentration at which inhibition is half-maximal.

Where two headings read alike, the source gives them in different places.

In one assay the target is purified human C5 (Homo sapiens, UniProt P01031). In words: Red blood cell (RBC) hemolysis assay, optical, absorbance 412 nm (Example 10, Table 19). The class given is cell-based. As to conditions: antibody-sensitized sheep erythrocytes, […] human C5 depleted sera.
For the next assay, the target named is T1, Human C5 (Homo sapiens, UniProt P01031).
T1 construct: purchased Complement Technology
Kind of assay: Surface plasmon resonance (SPR), immobilized human C5 (Example 9, Table 18). The class given is binding. The text has this:
Morrison and Boyd in “Organic Chemistry”, 6th edition, Prentice Hall (1992)] and validated for proper structure by mass spectrometry.
In general terms: Surface plasmon resonance follows binding to a sensor surface in real time, without labels.

The mark [1] stands for this setting: 0.5 nM purified human C5, absorbance 412 nm, read-out: RBC Hemolysis IC50.
Where [2] appears, read: immobilized human C5, equilibrium dissociation constant, read-out: SPR C5 EQ KD.
The mark [3] stands for this setting: SPR, human C5 immobilized, read-out: equilibrium dissociation constant for interaction with C5.

Chain of purified human C5 (P01031 19-1676): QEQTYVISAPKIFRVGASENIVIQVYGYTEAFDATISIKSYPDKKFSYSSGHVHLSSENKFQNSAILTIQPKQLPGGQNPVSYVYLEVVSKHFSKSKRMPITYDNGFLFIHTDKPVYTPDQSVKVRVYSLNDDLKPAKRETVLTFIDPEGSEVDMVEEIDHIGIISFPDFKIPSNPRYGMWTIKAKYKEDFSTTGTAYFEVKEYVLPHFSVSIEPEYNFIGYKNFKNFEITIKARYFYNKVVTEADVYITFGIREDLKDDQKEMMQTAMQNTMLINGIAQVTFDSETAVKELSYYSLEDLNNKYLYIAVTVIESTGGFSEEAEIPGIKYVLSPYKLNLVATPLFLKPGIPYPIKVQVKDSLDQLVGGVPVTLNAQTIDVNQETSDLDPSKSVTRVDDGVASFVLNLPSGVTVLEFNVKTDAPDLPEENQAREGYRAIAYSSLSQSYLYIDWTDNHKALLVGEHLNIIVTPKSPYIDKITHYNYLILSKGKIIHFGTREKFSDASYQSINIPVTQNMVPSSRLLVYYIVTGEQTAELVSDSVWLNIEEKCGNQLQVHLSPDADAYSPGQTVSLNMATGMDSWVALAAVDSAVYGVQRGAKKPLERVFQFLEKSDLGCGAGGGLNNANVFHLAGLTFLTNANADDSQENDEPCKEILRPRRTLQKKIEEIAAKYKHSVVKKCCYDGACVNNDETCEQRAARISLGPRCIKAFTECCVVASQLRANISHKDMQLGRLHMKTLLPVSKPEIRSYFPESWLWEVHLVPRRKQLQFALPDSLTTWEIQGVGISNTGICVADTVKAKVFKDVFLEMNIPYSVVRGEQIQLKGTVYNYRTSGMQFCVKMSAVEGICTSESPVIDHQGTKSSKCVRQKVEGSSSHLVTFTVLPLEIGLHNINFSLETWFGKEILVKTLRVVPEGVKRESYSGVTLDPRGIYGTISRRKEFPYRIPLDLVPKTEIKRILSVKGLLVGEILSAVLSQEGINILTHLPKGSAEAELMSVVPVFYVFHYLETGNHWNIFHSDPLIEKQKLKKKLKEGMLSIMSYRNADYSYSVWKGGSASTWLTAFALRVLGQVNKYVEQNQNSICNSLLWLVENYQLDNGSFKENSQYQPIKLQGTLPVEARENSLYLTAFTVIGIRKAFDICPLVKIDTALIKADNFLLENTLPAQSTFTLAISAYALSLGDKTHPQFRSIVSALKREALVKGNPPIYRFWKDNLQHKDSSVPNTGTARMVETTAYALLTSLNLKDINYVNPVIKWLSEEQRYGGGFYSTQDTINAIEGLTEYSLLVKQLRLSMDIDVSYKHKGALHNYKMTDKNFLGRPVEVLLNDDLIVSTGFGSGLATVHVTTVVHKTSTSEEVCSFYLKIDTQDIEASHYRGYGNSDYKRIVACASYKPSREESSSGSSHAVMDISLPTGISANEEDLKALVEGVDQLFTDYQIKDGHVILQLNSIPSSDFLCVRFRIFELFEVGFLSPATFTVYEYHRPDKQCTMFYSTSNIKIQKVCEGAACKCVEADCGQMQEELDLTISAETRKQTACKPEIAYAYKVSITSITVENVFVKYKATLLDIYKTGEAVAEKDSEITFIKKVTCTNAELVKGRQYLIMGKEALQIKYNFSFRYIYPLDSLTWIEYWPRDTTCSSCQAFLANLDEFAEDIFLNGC
T1 sequence (P01031 19-1676): as above

As to `COc1ccc(NC(=O)NCc2cccc3nc[nH]c23)cc1OCCCC(C)C` [Compound C5INH-0317], the IC50 on purified human C5 (setting [1]) was found to be 319 nM. Besides, on Human C5 (setting [2]), the Kd is 190 nM.
For `COc1ccc(NC(=O)NCc2ccc(OCCN(C)C)cc2)cc1OCCCC(C)C` [Compound C5INH-0318], the IC50 on purified human C5 (setting [1]) turned out to be 251 nM. The Kd at Human C5 (setting [2]) stood at 313 nM.
The corresponding values for `COc1ccc(NC(=O)NCc2cccc(CN3CCCC3=O)c2)cc1OCCCC(C)C` [Compound C5INH-0323] are 1920 nM and 731 nM.
Turning to `COc1ccc(NC(=O)NCc2c(F)cccc2OC)cc1OCCCC(C)C` [Compound C5INH-0326], on purified human C5 (setting [1]), the IC50 came to 784 nM. In addition, the Kd on Human C5 (setting [2]) was found to be 260 nM.
For `COc1ccc(NC(=O)NCc2cncs2)cc1OCCCC(C)C` [Compound C5INH-0329] the same measures were 4010 nM and 3200 nM.
For `COc1ccc(NC(=O)NCc2ccc3c(c2)OCO3)cc1OCCCC(C)C` [Compound C5INH-0330], the IC50 at purified human C5 (setting [1]) worked out at 2660 nM. For the same compound, the Kd on Human C5 (setting [2]) turned out to be 2900 nM.
On to `COc1ccc(NC(=O)NCc2ccnc(N)c2)cc1OCCCC(C)C` [Compound C5INH-0333], for which the IC50 on purified human C5 (setting [1]) came out at 442 nM. On Human C5 (setting [2]), the Kd stood at 98 nM.
As for `COCCOc1ccccc1CNC(=O)Nc1ccc(OC)c(OCCCC(C)C)c1` [Compound C5INH-0335], the IC50 at purified human C5 (setting [1]) was found to be 2090 nM. For the same compound, the Kd on Human C5 (setting [2]) stood at 180 nM.
With `COc1ccc(NC(=O)N[C@@H](CO)c2ccccc2)cc1NCCCC(C)C` [Compound C5INH-0336], the IC50 on purified human C5 (setting [1]) was found to be 473 nM. In addition, the Kd on Human C5 (setting [2]) was found to be 164 nM.
For `COc1ccc(NC(=O)NCc2ccccc2OCCC2CCOC2)cc1OCCCC(C)C` (stereo not shown) [Compound C5INH-0338], at purified human C5 (setting [1]), the IC50 amounted to 4370 nM. Besides, the Kd at Human C5 (setting [2]) turned out to be 195 nM.
Turning to `CCOc1ccccc1CNC(=O)Nc1ccc(OC)c(OCCCC(C)C)c1` [Compound C5INH-0339], the IC50 at purified human C5 (setting [1]) came out at 878 nM. Also, on Human C5 (setting [2]), the Kd worked out at 52 nM.
On to `COc1ccc(NC(=O)NCc2ccc3c(c2)OCCO3)cc1OCCCC(C)C` [Compound C5INH-0340], for which, on purified human C5 (setting [1]), the IC50 worked out at 992 nM. At Human C5 (setting [2]), the Kd came to 75 nM.
For `COc1ccc(NC(=O)NCc2cccc(CO)c2)cc1OCCCC(C)C` [Compound C5INH-0342] the same measures were 1540 nM and 180 nM.
Consider `COc1ccc(NC(=O)NCc2ccccc2N)cc1OCCCC(C)C` [Compound C5INH-0343], for which, on purified human C5 (setting [1]), the IC50 is 3040 nM. At Human C5 (setting [2]), the Kd stood at 800 nM.
As to `COc1ccc(CNC(=O)Nc2ccc(OC)c(OCCCC(C)C)c2)c(OC)c1` [Compound C5INH-0348], on purified human C5 (setting [1]), the 50% inhibitory concentration (IC50) is 72.5 nM. Further, the Kd was < 20 nM on Human C5 (setting [3]) and 10.2 nM at Human C5 (setting [2]).
For the compound `COc1ccc(NC(=O)N[C@@H](CO)c2ccccc2)cc1OCCc1cccs1` [Compound C5INH-0349], the IC50 at purified human C5 (setting [1]) is 1500 nM. For the same compound, the Kd on Human C5 (setting [2]) is 1210 nM.
For `COc1ccc(NC(=O)N[C@@H](CO)c2ccccc2)cc1OCCC1CCCCC1` [Compound C5INH-0350] the same measures were 653 nM and 160 nM.
The corresponding values for `COc1ccc(C(CO)NC(=O)Nc2ccc(OC)c(OCCCC(C)C)c2)cc1OC` (stereo not shown) [Compound C5INH-0352] are 2950 nM and 700 nM.
For `COc1ccc(NC(=O)NC(CO)c2ccc3[nH]ccc3c2)cc1OCCCC(C)C` (stereo not shown) [Compound C5INH-0353] the same measures were 328 nM and 580 nM.
For the compound `COc1cc(CC(=O)O)c(NC(=O)N[C@H](CO)c2ccccc2)cc1OCCCC(C)C` [Compound C5INH-0355], at purified human C5 (setting [1]), the IC50 is 2930 nM. Besides, the Kd at Human C5 (setting [2]) was determined as 441 nM.
For the compound `COc1ccc(NC(=O)NC(CO)c2cccc3[nH]ccc23)cc1OCCCC(C)C` (stereo not shown) [Compound C5INH-0356], the IC50 on purified human C5 (setting [1]) came to 111 nM. Moreover, at Human C5 (setting [2]), the Kd was determined as 59 nM.
The corresponding values for `COc1ccc(NC(=O)NCc2ccnc3c2ccn3C)cc1OCCCC(C)C` [Compound C5INH-0361] are 2350 nM and 52 nM.
Turning to `COc1ccc(NC(=O)NC(CO)c2cccc3[nH]ncc23)cc1OCCCC(C)C` (stereo not shown) [Compound C5INH-0366], the IC50 on purified human C5 (setting [1]) is 762 nM. Further, the Kd at Human C5 (setting [2]) worked out at 82 nM.
With `COc1ccc(NC(=O)N[C@@H](CO)c2ccccc2)cc1C(O)CCCC(C)C` (stereo partly shown) [Compound C5INH-0367], at purified human C5 (setting [1]), the IC50 worked out at 475 nM. Moreover, the Kd at Human C5 (setting [2]) was determined as 102 nM.
For `COc1ccc(NC(=O)NCc2cccc(N3CCN(C)CC3)c2)cc1OCCCC(C)C` [Compound C5INH-0369], the IC50 at purified human C5 (setting [1]) turned out to be 592 nM. Further, the Kd on Human C5 (setting [2]) amounted to 104 nM.
`COc1ccc(NC(=O)NC(CO)c2cccc(CNC(=O)OC(C)(C)C)c2)cc1OCCCC(C)C` (stereo not shown) [Compound C5INH-0372]: at purified human C5 (setting [1]), the IC50 amounted to 3270 nM. Also, on Human C5 (setting [2]), the Kd was found to be 670 nM.
Take `COc1ccc(NC(=O)NC(CO)c2cccc(CN)c2)cc1OCCCC(C)C` (stereo not shown) [Compound C5INH-0373]: the IC50 on purified human C5 (setting [1]) worked out at 1520 nM. Also, at Human C5 (setting [2]), the Kd is 293 nM.
For `COc1ccc(NC(=O)NCc2ccnc3c2ccn3CCN2CCCC2)cc1OCCCC(C)C` [Compound C5INH-0377], the IC50 at purified human C5 (setting [1]) came out at 156 nM. Further, the Kd at Human C5 (setting [2]) amounted to 47 nM.
On to `COc1ccc(NC(=O)NC(CO)c2cccc(CNCCN3CCOCC3)c2)cc1OCCCC(C)C` (stereo not shown) [Compound C5INH-0379], for which, on purified human C5 (setting [1]), the IC50 worked out at 3630 nM. For the same compound, the Kd on Human C5 (setting [2]) came out at 499 nM.
As to `COCCOc1cc(CNC(=O)Nc2ccc(OC)c(OCCCC(C)C)c2)ccn1` [Compound C5INH-0381], the IC50 at purified human C5 (setting [1]) is 1040 nM. For the same compound, on Human C5 (setting [2]), the Kd is 120 nM.
For `COc1ccc(NC(=O)NCc2ccnc(OCCN)c2)cc1OCCCC(C)C` [Compound C5INH-0382] the same measures were 312 nM and 181 nM.
Turning to `COc1ccc(NC(=O)NCc2ccnc(OCCN(C)C)c2)cc1OCCCC(C)C` [Compound C5INH-0383], on purified human C5 (setting [1]), the IC50 amounted to 293 nM. The Kd at Human C5 (setting [2]) came to 102 nM.
In the case of `COCCOCCOc1cc(CNC(=O)Nc2ccc(OC)c(OCCCC(C)C)c2)ccn1` [Compound C5INH-0384], the half-maximal inhibitory concentration (IC50) at purified human C5 (setting [1]) was 2180 nM. In addition, at Human C5 (setting [2]), the Kd is 810 nM.
Regarding `COc1ccc(NC(=O)N2CCc3ccc(O)cc3C2)cc1OCCCC(C)C` [Compound C5INH-0385], the IC50 on purified human C5 (setting [1]) is 1280 nM. Further, the Kd on Human C5 (setting [2]) was 190 nM.
For `COc1ccc(C2CCCN2C(=O)Nc2ccc(OC)c(OCCCC(C)C)c2)cc1` (stereo not shown) [Compound C5INH-0387] the same measures were 577 nM and 320 nM.
Turning to `COc1cccc(C2CCCN2C(=O)Nc2ccc(OC)c(OCCCC(C)C)c2)c1` (stereo not shown) [Compound C5INH-0388], the IC50 at purified human C5 (setting [1]) was determined as 970 nM. Moreover, the Kd at Human C5 (setting [2]) worked out at 970 nM.
Take `COc1ccc(NC(=O)NCc2ccnc(NCCN(C)C)c2)cc1OCCCC(C)C` [Compound C5INH-0389]: the IC50 at purified human C5 (setting [1]) was determined as 1310 nM. Moreover, the Kd at Human C5 (setting [2]) turned out to be 420 nM.
For `COCCNc1cc(CNC(=O)Nc2ccc(OC)c(OCCCC(C)C)c2)ccn1` [Compound C5INH-0390], the IC50 at purified human C5 (setting [1]) came to 698 nM. The Kd on Human C5 (setting [2]) was 257 nM.
Consider `COc1ccc(NC(=O)N[C@@H](CO)c2ccccc2O)cc1OCCCC(C)C` [Compound C5INH-0395], for which the 50% inhibitory concentration (IC50) on purified human C5 (0.5 nM human C5, read-out: IC50) is < 20 nM; at purified human C5 (setting [1]) it was 13.6 nM. Moreover, the Kd is < 20 nM at Human C5 (setting [3]) and 9 nM at Human C5 (setting [2]).
As for `COc1ccc(NC(=O)N2CCCC2c2ccc(N(C)C)cc2)cc1OCCCC(C)C` (stereo not shown) [Compound C5INH-0396], the IC50 on purified human C5 (setting [1]) turned out to be 2330 nM. Further, the Kd at Human C5 (setting [2]) was 1400 nM.
With `COC(=O)c1cc(OC)c(OCCCC(C)C)cc1NC(=O)N[C@@H](CO)c1ccccc1` [Compound C5INH-0397], the half-maximal inhibitory concentration (IC50) on purified human C5 (setting [1]) came out at 1380 nM. In addition, the Kd on Human C5 (setting [2]) amounted to 2060 nM.

Source of the values: patent US20230115176A1 (Ra Pharmaceuticals, Inc., priority 2019, published 2023).
